Like-named read-outs stand apart in the source and are kept apart here.
What was measured:
hTLR8 = biological target: T1, hTLR8 (Homo sapiens, UniProt Q9NR97); experiment: HEK-293 hTLR8 transfectant antagonist assay (NF-κB driven SEAP reporter); type: cell-based; settings: hTLR8 reporter cells
T1 construct: host or cells: HEK293 cells stably transfected with hTLR8
T1 sequence (Q9NR97 27-1041): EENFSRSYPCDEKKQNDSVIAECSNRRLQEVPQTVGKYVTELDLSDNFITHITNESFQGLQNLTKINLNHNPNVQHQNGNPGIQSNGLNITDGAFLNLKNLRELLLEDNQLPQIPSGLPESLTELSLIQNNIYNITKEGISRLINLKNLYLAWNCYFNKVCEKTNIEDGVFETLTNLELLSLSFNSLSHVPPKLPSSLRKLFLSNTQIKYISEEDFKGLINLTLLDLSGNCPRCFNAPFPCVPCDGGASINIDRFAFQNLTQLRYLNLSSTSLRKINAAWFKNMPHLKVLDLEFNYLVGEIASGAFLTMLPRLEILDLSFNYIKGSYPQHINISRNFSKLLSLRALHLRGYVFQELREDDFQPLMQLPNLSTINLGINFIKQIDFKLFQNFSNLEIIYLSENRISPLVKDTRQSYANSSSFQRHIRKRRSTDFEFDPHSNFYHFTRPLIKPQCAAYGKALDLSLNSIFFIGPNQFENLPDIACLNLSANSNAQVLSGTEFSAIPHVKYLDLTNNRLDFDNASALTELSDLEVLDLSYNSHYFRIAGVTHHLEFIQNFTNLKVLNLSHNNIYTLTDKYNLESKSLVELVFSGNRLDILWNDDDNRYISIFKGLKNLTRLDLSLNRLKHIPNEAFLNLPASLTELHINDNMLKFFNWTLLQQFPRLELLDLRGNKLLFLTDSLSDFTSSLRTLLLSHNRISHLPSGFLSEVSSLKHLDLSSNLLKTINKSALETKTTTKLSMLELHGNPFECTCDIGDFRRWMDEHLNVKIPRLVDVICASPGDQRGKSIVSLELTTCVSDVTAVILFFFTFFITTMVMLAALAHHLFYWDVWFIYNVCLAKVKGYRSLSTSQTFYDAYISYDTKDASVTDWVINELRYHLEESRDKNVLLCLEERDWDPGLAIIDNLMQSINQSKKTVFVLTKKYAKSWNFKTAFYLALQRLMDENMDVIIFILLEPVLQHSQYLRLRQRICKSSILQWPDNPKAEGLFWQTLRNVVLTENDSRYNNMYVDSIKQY
Description: The HEK-293 hTLR transfectant assay employs HEK293 cells stably transfected with various hTLRs and transiently co-transfected with a plasmid containing an NF-κB driven secreted embryonic alkaline phosphate (SEAP) reporter gene. Stimulation of TLRs activates their downstream signaling pathways and induces nuclear translocation of the transcription factor NF-κB. Reporter gene activity is then measured using a spectrophotometric assay. To measure antagonist activity, human embryonic kidney (HEK) cells (e.g., 293XL-hTLR8 cells available from InvivoGen, San Diego, Calif.) are prepared according to supplier's instructions and incubated with various concentrations of test compound overnight. The amount of induced […] is measured by reading the absorbance at 650 nm. The compounds of the invention have an MC50 of 25 μM or less, wherein MC50 is defined as the concentration at which 50% of maximum induction is seen. For the TLR8 antagonist assays, cells are transiently transfected with the reporter gene on Day 1 per the supplier's instructions. Antagonist compounds are added to the cultures on Day 2 followed by addition of a TLR8 agonist approximately 2 hours later. Cultures are incubated overnight and SEAP activity is measured on Day 3. In a typical assay, 50,000 HEK239 hTLR8 cells are seeded per culture well and transiently transfected with the SEAP reporter gene. Antagonists are added to cultures in culture medium and […] DMSO over a concentration range of 0.1 nanomolar to 10 micromolar. TLR8 agonists are added to cultures 2 hours later at a fixed concentration (e.g., 1 micromolar or 10 micromolar of Compound A) and cultures are then incubated for 16-24 hrs at 37° C. in a humidified CO incubator. Antagonists are also evaluated for activity in the absence of agonist. TLR8 antagonist activity was measured in a hTLR8 assay format, measuring IC50 values. […] IC50s were then calculated.

[1] = system: IL-8 production in human PBMC stimulated with CL075; experiment: Human PBMC assay: inhibition of IL-8 production stimulated with CL075 (ELISA); type: cell-based; settings: 3 to 1000 nM antagonist, 2 hours before CL075 100 ng/ML (400 nM), overnight; one donor, duplicate wells
Description: PBMCs contain a mixture of cells including monocytes and myeloid dendritic cells (mDCs) that express TLR8. […] The ability of TLR8 antagonists to inhibit […] in human PBMCs was evaluated. […] Data shown in FIG. 1 are a representative experiment from one donor evaluated in duplicate culture wells. […] At the end of the incubation, cells were centrifuged and cell culture supernatants were analyzed for IL-8 by ELISA (eBiosciene kit) per the manufacturer's instructions.
The experiment shown in FIG. 1 was repeated in multiple donors and with additional TLR8 antagonist molecules (see FIG. 2). […] Percent inhibition is shown on the y-axis and concentrations of TLR8 antagonists (3-1000 nM) are shown on the x-axis in FIG. 2.

[2] = IC50, nM, vs. 3M002 10 μM, agonist 3M002 10 μM
[3] = IC50, nM, vs. VTX-378 1 μM, TLR8 agonist VTX-378 (Compound A) 1 μM
[4] = TLR8 agonist VTX-378 (Compound A) 0.5 μM, read-out: IC50, nM, vs. VTX-378 0.5 μM
[5] = IC50, nM, vs. VTX-378 10 μM, TLR8 agonist VTX-378 (Compound A) 10 μM

Structure (SMILES) | IC50 (hTLR8; [2]) [nM] | IC50 (hTLR8; [3]) [nM] | IC50 (hTLR8; [4]) [nM] | IC50 (hTLR8; [5]) [nM] | IC50 (hTLR8; IC50, nM, vs. 3M002 1 μM, agonist 3M002 1 μM) [nM] | IL-8 levels in human PBMC stimulated with CL075 (FIG. 1) [1]
CCOC(=O)C1=Cc2cc(-c3ccc(C(=O)N4CCCC4)cc3)ccc2N=C(N)C1(C)C [Compound 3348, Ethyl 2-amino-3,3-dimethyl-7-[4-(pyrrolidin-1-ylcarbonyl)phenyl]-3H-1-benzazepine-4-carboxylate] | – | – | – | – | – | reduced in a dose dependent fashion
CCCN(CCC)C(=O)C1=Cc2cc(-c3ccc(C(=O)N4CCCC4)cc3)ccc2N=C(N)C1 [Compound 2987, 2-Amino-N,N-dipropyl-7-[4-(pyrrolidin-1-ylcarbonyl)phenyl]-3H-1-benzazepine-4-carboxamide] | – | – | – | – | – | reduced in a dose dependent fashion
CCOC(=O)C1=Cc2cc(-c3ccc(C(=O)N4CCCC4)cc3)ccc2N=C2NCCC12 (centres unmarked) [Compound 3448] | – | < 1000 | < 1000 | – | – | reduced in a dose dependent fashion
CCOC(=O)C1=Cc2cc(Oc3ccccc3)ccc2N=C(N)C1 [Compound 2946] | – | 1000 to 10000 | – | ≥ 10000 | – | –
CCOC(=O)C1=Cc2cc(-c3ccc(C(=O)OCC)cc3)ccc2N=C(N)C1 [Compound 3101, Ethyl 2-amino-7-[4-(ethoxycarbonyl)phenyl]-3H-1-benzazepine-4-carboxylate] | ≥ 10000 | ≥ 10000 | 1000 to 10000 | – | – | –
CCOC(=O)C1=Cc2cc(Oc3cccc(C(F)(F)F)c3)ccc2N=C(N)C1 [Compound 3046] | 1000 to 10000 | 1000 to 10000 | – | ≥ 10000 | – | –
CCOC(=O)C1=Cc2cc(Oc3ccc(C(=O)N(C)C)cc3)ccc2N=C(N)C1 [Compound 3093] | ≥ 10000 | ≥ 10000 | – | ≥ 10000 | – | –
CCOC(=O)C1=Cc2cc(-c3ccc(S(=O)(=O)N(C)C)cc3)ccc2N=C(N)C1 [Compound 3055, Ethyl 2-amino-7-{4-[(dimethylamino)sulfonyl]phenyl}-3H-1-benzazepine-4-carboxylate] | – | 1000 to 10000 | – | ≥ 10000 | – | –

More lines, main results first:

IC50 (hTLR8; [2]) [nM] | IC50 (hTLR8; [3]) [nM] | IC50 (hTLR8; [4]) [nM] | IC50 (hTLR8; [5]) [nM] | IC50 (hTLR8; IC50, nM, vs. 3M002 1 μM, agonist 3M002 1 μM) [nM] | Structure (SMILES) | IL-8 levels in human PBMC stimulated with CL075 (FIG. 1) [1]
< 1000 | < 1000 | < 1000 | – | – | CCOC(=O)Nc1ccc(-c2ccc3c(c2)C=C(C(=O)OCC)CC(N)=N3)c(Cl)c1 [Compound 3261, Ethyl 2-amino-7-{2-chloro-4-[(ethoxycarbonyl)amino]phenyl}-3H-1-benzazepine-4-carboxylate] | reduced in a dose dependent fashion
– | 1000 to 10000 | – | 1000 to 10000 | – | CCOC(=O)C1=Cc2cc(C(=O)OC(C)C)ccc2N=C(N)C1 [Compound 3197] | –
– | 1000 to 10000 | 1000 to 10000 | – | – | CCOC(=O)C1=Cc2cc(C3=CCN(C(=O)N4CCCC4)CC3)ccc2N=C(N)C1 [Compound 3254] | –
– | < 1000 | – | < 1000 | – | CCOC(=O)C1=Cc2cc(C3=CCN(C(=O)OCC)CC3)ccc2N=C(N)C1 [Compound 3202] | –
1000 to 10000 | < 1000 | < 1000 | – | < 1000 | CCOC(=O)C1=Cc2cc(-c3ccccc3Cl)ccc2N=C(N)C1 [Compound 3127, Ethyl 2-amino-7-(2-chlorophenyl)-3H-1-benzazepine-4-carboxylate] | –
– | < 1000 | < 1000 | – | – | CCCN(CC(N)=O)C(=O)C1=Cc2cc(-c3ccc(C(=O)N4CCCC4)cc3C)ccc2N=C(N)C1 [Compound 3343, 2-Amino-N-(2-amino-2-oxoethyl)-7-[2-methyl-4-(pyrrolidin-1-ylcarbonyl)phenyl]-N-propyl-3H-1-benzazepine-4-carboxamide] | –
< 1000 | < 1000 | < 1000 | – | – | CCOC(=O)C1=Cc2cc(-c3ccc(C(=O)N4CCCC4)cc3C)ccc2N=C(N)C1 [Compound 3119, Ethyl 2-amino-7-[2-methyl-4-(pyrrolidin-1-ylcarbonyl)phenyl]-3H-1-benzazepine-4-carboxylate] | –
< 1000 | < 1000 | < 1000 | – | – | CCOC(=O)C1=Cc2cc(-c3ccc(N4CCOC4=O)cc3Cl)ccc2N=C(N)C1 [Compound 3387, Ethyl 2-amino-7-[2-chloro-4-(2-oxo-1,3-oxazolidin-3-yl)phenyl]-3H-1-benzazepine-4-carboxylate] | reduced in a dose dependent fashion
